Data reported in ChEMBL document CHEMBL1944611, “Genistein binding mode to doubly nicked dumbbell DNA. Dynamic and diffusion ordered NMR study” (J Med Chem, 2011).

How the values were obtained:
Format in all cases: nucleic-acid assay
Nucleic Acid [1] = assay: Binding affinity to Doubly nicked dumbbell DNA 5'-TCGAACGC/iSp18/GCTG/3Phos/-3' at 1 mM compound concentration and pH 6
Nucleic Acid [2] = assay: Binding affinity to Doubly nicked dumbbell DNA 5'-TCGAACGC/iSp18/GCTG/3Phos/-3' at 1.9 mM DNA concentration and pH 6
Nucleic Acid [3] = assay: Binding affinity to Doubly nicked dumbbell DNA 5'-TCGAACGC/iSp18/GCTG/3Phos/-3' at 1 mM compound concentration and pH 8.6
Nucleic Acid [4] = assay: Binding affinity to Doubly nicked dumbbell DNA 5'-TCGAACGC/iSp18/GCTG/3Phos/-3' at 1 mM DNA concentration and pH 8.4
Nucleic Acid [5] = assay: Binding affinity to Doubly nicked dumbbell DNA 5'-TCGAACGC/iSp18/GCTG/3Phos/-3' at 1.4 mM compound concentration and pH 8.4
Nucleic Acid [6] = assay: Binding affinity to Doubly nicked dumbbell DNA 5'-TCGAACGC/iSp18/GCTG/3Phos/-3' at 1 mM DNA concentration and pH 8.6
Nucleic Acid [7] = assay: Binding affinity to Doubly nicked dumbbell DNA 5'-TCGAACGC/iSp18/GCTG/3Phos/-3' at 1 mM DNA concentration and pH 9.2
Nucleic Acid [8] = assay: Binding affinity to Doubly nicked dumbbell DNA 5'-TCGAACGC/iSp18/GCTG/3Phos/-3' at 1.4 mM compound concentration and pH 9.2

Row | Ka (Nucleic Acid [1]) [mM⁻¹] | Ka (Nucleic Acid [2]) [mM⁻¹] | Ka (Nucleic Acid [3]) [mM⁻¹] | Ka (Nucleic Acid [4]) [mM⁻¹] | Ka (Nucleic Acid [5]) [mM⁻¹] | Ka (Nucleic Acid [6]) [mM⁻¹] | Ka (Nucleic Acid [7]) [mM⁻¹] | Ka (Nucleic Acid [8]) [mM⁻¹] | SMILES
1 | 0.5 | 0.71 | – | – | – | – | – | – | CN(C)Cc1c(O)c(CN(C)C)c2occ(-c3ccc(O)cc3)c(=O)c2c1O
2 | – | – | 0.38 | 0.57 | 0.23 | 0.77 | 0.31 | 0.17 | O=c1c(-c2ccc(O)cc2)coc2cc(O)cc(O)c12
